Consider six compounds from ChEMBL document CHEMBL5465560, “Selectivity Literature for EUbOPEN Chemogenomic Library” (2024).

Assay [1] concerns the target T1, Protein kinase C epsilon type (Homo sapiens) (UniProt Q02156).
T1 sequence (whole entry): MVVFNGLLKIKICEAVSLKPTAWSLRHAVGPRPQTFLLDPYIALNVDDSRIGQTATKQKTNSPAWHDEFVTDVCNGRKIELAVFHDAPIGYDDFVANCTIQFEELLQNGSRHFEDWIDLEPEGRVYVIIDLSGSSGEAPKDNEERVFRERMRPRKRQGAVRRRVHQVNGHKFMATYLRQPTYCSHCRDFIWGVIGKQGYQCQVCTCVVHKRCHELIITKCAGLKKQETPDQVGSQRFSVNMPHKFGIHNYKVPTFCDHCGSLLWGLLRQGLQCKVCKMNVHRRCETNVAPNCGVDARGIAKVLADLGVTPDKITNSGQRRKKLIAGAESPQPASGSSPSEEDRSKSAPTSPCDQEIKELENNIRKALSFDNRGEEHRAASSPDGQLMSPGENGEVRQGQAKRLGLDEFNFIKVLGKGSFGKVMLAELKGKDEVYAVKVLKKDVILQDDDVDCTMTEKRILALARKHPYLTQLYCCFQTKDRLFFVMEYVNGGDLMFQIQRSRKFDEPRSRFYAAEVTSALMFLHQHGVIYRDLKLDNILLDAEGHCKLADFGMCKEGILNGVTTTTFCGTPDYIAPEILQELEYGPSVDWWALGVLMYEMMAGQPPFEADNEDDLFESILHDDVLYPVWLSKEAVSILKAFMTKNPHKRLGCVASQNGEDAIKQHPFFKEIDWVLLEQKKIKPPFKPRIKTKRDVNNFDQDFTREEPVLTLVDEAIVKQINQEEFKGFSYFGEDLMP
As to the kind of experiment: Selectivity interaction (KinomeScan (DiscoverX)) EUB0000595a PRKCE. The following applies: at 10 µM.

The target in assay [2] is T2, Rhodopsin kinase GRK1 (Homo sapiens) (UniProt Q15835).
T2 sequence (whole entry): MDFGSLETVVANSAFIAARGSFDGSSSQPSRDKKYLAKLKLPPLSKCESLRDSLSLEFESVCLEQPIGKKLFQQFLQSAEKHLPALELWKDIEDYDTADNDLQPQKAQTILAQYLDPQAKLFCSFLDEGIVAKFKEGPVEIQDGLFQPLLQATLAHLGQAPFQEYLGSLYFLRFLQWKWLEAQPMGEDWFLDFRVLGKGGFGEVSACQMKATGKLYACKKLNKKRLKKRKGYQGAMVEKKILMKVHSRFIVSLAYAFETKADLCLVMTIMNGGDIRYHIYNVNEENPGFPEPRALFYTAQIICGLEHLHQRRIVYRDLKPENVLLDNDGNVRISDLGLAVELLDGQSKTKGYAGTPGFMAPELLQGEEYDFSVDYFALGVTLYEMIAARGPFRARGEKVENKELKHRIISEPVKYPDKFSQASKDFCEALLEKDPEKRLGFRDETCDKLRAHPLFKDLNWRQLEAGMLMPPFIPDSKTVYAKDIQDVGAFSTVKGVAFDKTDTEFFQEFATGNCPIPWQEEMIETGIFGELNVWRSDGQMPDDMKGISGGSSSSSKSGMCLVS
As to the kind of experiment: Selectivity interaction (KinomeScan (DiscoverX)) EUB0001619a GRK1. The conditions noted are these: at 1 µM.

Assay [3] addresses T3, Mitogen-activated protein kinase kinase kinase 3 (Homo sapiens) (UniProt Q99759).
T3 sequence (whole entry): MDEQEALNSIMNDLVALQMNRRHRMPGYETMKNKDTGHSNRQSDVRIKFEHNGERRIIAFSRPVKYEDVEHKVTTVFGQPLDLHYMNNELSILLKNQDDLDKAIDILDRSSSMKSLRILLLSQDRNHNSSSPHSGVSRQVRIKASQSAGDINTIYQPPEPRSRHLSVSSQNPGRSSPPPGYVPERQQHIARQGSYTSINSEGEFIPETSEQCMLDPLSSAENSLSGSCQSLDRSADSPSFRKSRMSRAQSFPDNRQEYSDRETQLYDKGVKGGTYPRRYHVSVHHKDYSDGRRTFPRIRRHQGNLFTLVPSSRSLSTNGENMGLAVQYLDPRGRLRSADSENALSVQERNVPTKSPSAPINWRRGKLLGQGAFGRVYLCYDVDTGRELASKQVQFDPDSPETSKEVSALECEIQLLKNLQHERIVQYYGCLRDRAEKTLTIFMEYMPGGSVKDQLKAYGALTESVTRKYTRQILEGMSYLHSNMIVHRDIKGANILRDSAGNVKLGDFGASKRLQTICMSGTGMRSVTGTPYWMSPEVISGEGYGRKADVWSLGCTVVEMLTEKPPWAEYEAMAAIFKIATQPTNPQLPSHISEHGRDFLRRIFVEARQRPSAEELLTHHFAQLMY
As to the kind of experiment: Selectivity interaction (KinomeScan (DiscoverX)) EUB0001619a MAP3K3. The following applies: at 1 µM.

For assay [4], the target named is Macrophage-stimulating protein receptor (Homo sapiens, UniProt Q04912). As to the kind of experiment: Selectivity interaction (Ambit KINOMEscan and KiNATiv profiling in Jurkat cells) EUB0000090b MST1R. The conditions noted are these: at 1 µM. Type of assay: cell-based.
Assay [5] has as its target Receptor tyrosine-protein kinase erbB-2 (Homo sapiens, UniProt P04626). In words: Selectivity interaction (KinomeScan (DiscoverX)) EUB0000618a ERBB2. The conditions noted are these: at 10 µM.
The target in assay [6] is Serine/threonine-protein kinase PLK3 (Homo sapiens, UniProt Q9H4B4). As to the kind of experiment: Selectivity interaction (KinomeScan (DiscoverX)) EUB0000092b PLK3. The conditions noted are these: at 10 µM.
The target in assay [7] is T4, Activin receptor type-1 (Homo sapiens) (UniProt Q04771).
T4 sequence (whole entry): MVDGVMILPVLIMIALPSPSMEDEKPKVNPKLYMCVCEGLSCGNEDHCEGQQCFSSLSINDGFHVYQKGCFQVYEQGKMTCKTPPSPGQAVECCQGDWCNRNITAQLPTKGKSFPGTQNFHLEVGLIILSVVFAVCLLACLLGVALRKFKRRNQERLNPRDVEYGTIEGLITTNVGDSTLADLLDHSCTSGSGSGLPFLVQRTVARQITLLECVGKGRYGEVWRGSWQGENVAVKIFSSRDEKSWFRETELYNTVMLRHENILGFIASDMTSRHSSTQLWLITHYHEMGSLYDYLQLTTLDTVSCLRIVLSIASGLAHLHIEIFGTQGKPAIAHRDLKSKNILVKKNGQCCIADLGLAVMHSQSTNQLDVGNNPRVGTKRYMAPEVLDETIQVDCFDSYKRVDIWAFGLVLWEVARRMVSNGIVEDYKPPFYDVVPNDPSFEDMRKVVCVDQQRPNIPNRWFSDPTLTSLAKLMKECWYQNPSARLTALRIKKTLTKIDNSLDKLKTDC
As to the kind of experiment: Selectivity interaction (KinomeScan (DiscoverX)) EUB0000092b ACVR1. The following applies: at 10 µM.

The target in assay [8] is Serine/threonine-protein kinase 32B (Homo sapiens) (UniProt Q9NY57). In words: Selectivity interaction (KinomeScan (DiscoverX)) EUB0001079a STK32B. The conditions noted are these: at 1 µM.
In assay [9] the test system is Epidermal growth factor receptor (Homo sapiens), P00533 [G719S]. In words: (§1) Selectivity interaction (KinomeScan (DiscoverX)) EUB0001079a EGFR. The following applies: at 1 µM.
In assay [10] the test system is Epidermal growth factor receptor (Homo sapiens), P00533 [L858R]. The description is as §1. The conditions noted are these: at 1 µM.
For assay [11], the system named is Epidermal growth factor receptor (Homo sapiens), P00533 [G719C]. The description is as §1. The following applies: at 1 µM.

Chain of Epidermal growth factor receptor (Homo sapiens), P00533 [G719S] (P00533 whole entry G719S): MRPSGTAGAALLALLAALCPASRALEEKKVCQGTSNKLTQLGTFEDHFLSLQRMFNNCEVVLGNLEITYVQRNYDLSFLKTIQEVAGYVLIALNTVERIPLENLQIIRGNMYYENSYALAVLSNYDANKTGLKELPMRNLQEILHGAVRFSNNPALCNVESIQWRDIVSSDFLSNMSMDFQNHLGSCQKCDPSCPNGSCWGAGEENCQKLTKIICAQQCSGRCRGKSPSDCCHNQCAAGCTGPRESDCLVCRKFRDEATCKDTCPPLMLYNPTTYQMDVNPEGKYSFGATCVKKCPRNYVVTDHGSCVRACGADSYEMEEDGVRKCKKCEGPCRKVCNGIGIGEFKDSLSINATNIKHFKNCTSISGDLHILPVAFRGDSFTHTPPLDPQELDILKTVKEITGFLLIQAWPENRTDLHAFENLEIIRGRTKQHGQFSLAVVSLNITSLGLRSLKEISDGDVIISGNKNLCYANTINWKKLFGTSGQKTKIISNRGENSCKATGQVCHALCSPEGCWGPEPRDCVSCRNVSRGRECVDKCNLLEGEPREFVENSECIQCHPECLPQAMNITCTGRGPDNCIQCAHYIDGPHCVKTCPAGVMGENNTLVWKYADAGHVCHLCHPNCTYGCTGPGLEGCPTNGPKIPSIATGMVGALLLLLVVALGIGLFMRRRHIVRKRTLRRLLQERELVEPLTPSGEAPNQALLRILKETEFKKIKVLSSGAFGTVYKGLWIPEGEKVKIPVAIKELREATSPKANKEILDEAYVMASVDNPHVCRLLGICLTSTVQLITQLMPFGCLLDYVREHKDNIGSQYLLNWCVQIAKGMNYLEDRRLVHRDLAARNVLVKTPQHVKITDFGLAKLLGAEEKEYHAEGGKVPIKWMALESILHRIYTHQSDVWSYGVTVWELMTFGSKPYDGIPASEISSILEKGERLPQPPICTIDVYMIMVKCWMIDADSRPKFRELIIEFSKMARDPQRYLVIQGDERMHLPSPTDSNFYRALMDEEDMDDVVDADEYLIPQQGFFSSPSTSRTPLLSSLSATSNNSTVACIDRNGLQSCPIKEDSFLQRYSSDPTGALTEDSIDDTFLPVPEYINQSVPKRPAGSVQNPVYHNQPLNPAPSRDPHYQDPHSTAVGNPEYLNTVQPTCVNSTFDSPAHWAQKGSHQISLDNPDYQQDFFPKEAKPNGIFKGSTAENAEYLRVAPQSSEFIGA
Chain of Receptor tyrosine-protein kinase erbB-2 (P04626 whole entry): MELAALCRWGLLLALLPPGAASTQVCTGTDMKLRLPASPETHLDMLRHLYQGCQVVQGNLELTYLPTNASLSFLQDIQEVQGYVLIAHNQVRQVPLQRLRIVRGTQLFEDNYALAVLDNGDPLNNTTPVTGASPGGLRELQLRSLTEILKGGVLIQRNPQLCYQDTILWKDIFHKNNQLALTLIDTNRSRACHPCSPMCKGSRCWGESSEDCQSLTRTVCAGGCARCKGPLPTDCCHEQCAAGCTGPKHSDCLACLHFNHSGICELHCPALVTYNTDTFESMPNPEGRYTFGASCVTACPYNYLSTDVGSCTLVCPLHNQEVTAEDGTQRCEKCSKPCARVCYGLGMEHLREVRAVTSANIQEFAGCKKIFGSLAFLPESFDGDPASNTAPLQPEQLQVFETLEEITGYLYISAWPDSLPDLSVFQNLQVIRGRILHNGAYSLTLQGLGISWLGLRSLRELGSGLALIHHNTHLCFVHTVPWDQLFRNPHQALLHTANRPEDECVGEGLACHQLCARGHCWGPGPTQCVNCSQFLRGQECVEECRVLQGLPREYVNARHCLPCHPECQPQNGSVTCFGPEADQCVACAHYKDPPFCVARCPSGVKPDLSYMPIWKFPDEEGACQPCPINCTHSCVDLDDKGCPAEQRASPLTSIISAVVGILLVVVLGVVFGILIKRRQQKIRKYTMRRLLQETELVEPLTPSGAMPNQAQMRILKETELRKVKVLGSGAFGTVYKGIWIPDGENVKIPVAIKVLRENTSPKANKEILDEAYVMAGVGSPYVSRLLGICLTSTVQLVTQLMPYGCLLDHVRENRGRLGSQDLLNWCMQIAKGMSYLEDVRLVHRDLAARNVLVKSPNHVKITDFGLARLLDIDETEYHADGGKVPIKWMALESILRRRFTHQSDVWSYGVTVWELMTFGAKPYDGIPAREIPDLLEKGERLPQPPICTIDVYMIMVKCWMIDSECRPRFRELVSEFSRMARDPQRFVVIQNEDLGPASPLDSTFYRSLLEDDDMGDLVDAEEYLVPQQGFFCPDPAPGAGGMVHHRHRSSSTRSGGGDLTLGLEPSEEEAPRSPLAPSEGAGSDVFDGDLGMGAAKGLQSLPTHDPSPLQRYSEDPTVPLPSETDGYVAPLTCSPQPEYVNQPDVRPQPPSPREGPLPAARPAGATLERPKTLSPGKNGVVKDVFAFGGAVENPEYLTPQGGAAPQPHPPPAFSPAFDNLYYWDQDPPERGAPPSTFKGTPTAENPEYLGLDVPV
Chain of Serine/threonine-protein kinase PLK3 (Q9H4B4 whole entry, looked up): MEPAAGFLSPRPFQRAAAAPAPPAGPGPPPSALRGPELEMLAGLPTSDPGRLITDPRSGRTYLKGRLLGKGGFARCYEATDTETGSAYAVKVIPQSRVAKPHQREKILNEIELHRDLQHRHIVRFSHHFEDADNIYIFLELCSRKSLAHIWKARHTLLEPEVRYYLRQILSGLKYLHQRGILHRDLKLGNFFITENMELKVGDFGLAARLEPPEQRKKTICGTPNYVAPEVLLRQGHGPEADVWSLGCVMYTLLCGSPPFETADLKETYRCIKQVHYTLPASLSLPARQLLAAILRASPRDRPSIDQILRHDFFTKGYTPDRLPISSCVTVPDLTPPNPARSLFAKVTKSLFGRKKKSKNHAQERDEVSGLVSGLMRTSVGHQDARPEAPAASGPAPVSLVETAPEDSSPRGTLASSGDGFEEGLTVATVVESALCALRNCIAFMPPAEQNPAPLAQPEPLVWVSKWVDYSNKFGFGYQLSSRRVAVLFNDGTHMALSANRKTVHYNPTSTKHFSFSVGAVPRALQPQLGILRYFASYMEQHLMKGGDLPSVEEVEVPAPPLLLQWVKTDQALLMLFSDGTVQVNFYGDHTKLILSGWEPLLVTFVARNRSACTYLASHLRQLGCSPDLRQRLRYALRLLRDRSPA
Chain of Macrophage-stimulating protein receptor (Q04912 25-304 limits assumed): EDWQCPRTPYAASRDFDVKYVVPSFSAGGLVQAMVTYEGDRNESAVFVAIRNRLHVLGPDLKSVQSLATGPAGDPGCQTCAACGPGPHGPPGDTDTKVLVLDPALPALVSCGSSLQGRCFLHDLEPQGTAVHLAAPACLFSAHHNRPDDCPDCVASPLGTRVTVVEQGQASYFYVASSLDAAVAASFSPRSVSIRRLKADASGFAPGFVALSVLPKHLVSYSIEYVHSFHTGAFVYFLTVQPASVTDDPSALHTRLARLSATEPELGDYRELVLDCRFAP
Chain of Macrophage-stimulating protein receptor (Q04912 310-1400 limits assumed): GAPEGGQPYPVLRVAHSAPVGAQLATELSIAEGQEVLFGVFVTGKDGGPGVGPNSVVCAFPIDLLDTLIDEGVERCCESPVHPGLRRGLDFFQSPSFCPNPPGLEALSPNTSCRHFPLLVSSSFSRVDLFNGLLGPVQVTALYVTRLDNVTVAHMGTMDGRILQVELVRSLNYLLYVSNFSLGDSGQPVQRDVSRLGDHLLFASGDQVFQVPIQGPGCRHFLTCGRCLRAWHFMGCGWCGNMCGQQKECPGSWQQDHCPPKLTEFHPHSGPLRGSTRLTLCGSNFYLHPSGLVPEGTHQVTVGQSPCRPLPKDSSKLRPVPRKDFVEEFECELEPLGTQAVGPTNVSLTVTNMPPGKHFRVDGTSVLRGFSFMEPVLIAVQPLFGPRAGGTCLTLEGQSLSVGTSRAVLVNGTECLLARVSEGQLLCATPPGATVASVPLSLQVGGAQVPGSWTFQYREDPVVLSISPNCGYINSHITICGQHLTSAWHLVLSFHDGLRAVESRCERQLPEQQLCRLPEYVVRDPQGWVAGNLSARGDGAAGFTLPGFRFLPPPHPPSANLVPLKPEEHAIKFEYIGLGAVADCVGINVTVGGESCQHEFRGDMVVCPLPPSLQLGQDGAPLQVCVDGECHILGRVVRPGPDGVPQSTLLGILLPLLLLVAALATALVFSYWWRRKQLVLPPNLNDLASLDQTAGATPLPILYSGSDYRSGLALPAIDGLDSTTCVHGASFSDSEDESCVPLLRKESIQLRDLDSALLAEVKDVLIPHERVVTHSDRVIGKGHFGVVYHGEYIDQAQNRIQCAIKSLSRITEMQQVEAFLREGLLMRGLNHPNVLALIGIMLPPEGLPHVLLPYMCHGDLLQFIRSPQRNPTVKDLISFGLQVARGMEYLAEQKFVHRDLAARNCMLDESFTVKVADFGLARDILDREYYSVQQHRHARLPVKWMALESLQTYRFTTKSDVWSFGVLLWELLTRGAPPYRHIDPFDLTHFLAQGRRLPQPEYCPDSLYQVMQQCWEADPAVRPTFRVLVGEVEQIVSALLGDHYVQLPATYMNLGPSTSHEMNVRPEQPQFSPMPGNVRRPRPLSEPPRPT
Chain of Serine/threonine-protein kinase 32B (Homo sapiens) (Q9NY57 whole entry): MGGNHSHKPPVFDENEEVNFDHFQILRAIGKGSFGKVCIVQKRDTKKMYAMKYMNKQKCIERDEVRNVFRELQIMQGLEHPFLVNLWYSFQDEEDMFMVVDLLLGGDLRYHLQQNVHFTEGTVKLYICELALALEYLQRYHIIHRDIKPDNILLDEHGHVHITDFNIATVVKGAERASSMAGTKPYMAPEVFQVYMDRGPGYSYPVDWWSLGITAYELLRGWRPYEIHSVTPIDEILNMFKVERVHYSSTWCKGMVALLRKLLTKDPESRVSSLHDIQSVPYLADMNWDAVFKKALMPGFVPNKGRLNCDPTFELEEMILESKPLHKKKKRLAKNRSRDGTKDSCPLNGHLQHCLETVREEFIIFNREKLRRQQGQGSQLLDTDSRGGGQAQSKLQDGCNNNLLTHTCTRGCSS

With `COCC(=O)NC/C=C/c1ccc2ncnc(Nc3ccc(Oc4ccc(C)nc4)c(C)c3)c2c1` [CP-724714], the % of control in assay [1] worked out at 100%.
As to `N#Cc1cccc(-c2c[nH]c3ncnc(N4CCOCC4)c23)c1`, the % of control in assay [2] stood at 74%; in assay [3], 8.2%.
`CN(C)C/C=C/C(=O)Nc1ccc(C(=O)N2CCCC(Nc3ncc(Cl)c(-c4c[nH]c5ccccc45)n3)C2)cc1` (stereo unspecified) registered a % of control in assay [4] of 90%.
Turning to `O[C@H]1CC[C@H](Nc2ncc3nc(Nc4c(F)cc(F)cc4F)n([C@H]4CCOC4)c3n2)CC1`, the % of control in [5] stood at 52%.
Consider `CCC(=O)N1CCN(c2ccc(-n3c(=O)ccc4cnc5ccc(-c6cnc7ccccc7c6)cc5c43)cc2C(F)(F)F)CC1`, for which the % of control is 87% in [6] and 28% in [7].
In the case of `Nc1cnc(N2CCc3cc(S(=O)(=O)Nc4c(F)cc(Cl)cc4F)cc(N4CCCC4=O)c32)nc1` [TP-020n], the % of control in [8] was determined as 74%; in assay [9] it was 75%; in [10], 85%; in [11] it was 100%.
